Source: article PMC11701132, “Tau is a receptor with low affinity for glucocorticoids and is required for glucocorticoid-induced bone loss” (Cell Research, 2025)
pKd: −log10 of the molar value.

What was measured:
[1] = target: T1, Tau (Homo sapiens, UniProt P10636); assay: one-step kinetic SPR (KD […]); solid phase binding with biotin-dexamethasone ([…]); DARTS in Raw264.[…] lysate ([…])
T1 construct: gene MAPT; purified Tau protein

[2] = target: T2, GPR97 (Homo sapiens, UniProt Q86Y34); assay: HuProt human proteome microarray with biotin-labeled dexamethasone ([…]); type: binding
T2 construct: gene ADGRG3; full-length human protein with N-terminal glutathione S-transferase tag on microarray
T2 sequence (Q86Y34 21-549): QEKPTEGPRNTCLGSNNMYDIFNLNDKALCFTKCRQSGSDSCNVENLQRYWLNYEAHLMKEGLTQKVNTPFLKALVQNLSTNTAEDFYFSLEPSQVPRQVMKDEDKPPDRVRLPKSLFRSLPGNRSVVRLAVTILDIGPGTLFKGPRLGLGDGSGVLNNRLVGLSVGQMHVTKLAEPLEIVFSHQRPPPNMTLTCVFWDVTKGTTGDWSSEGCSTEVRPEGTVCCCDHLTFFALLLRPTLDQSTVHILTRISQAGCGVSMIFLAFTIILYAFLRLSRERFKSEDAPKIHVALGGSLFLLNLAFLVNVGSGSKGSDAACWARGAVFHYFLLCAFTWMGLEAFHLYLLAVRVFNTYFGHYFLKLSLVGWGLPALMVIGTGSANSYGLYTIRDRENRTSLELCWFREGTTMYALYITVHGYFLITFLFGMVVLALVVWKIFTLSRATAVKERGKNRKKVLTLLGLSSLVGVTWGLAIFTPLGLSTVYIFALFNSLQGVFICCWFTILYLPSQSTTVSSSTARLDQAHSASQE

T1 sequence (P10636 1-441 isoform P10636-8): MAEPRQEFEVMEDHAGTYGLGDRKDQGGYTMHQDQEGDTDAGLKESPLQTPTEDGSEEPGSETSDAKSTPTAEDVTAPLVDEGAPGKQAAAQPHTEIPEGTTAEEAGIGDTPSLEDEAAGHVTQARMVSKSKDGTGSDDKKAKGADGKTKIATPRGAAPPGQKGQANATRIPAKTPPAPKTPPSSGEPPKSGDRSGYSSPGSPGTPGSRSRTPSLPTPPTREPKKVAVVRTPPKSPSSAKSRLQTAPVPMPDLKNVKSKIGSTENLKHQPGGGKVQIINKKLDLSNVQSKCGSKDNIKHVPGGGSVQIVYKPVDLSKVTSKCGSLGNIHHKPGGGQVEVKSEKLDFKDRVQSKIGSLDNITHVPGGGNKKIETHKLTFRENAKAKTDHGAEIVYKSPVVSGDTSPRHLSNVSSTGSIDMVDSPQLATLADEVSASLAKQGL

- pKd [1]: ~3.42
Compound: C[C@@H]1C[C@H]2[C@@H]3CCC4=CC(=O)C=C[C@]4(C)[C@@]3(F)[C@@H](O)C[C@]2(C)[C@@]1(O)C(=O)CO [dexamethasone]
- HuProt human proteome microarray with biotin-labeled dexamethasone (0.2 and 400) [2]: dexamethasone bound to GR and GPR97, two known receptors of dexamethasone
